These results are taken from patent publication US8859583B2, “Bicyclic heterocyclic compounds as protein tyrosine kinase inhibitors” (Astex Therapeutics Limited, priority 2007, dated 2014).

Counter-ions that a name gives are not always drawn.

For data set [1], the system named is Ba/F3-TEL-FGFR3 cell line. The experiment in a line: Ba/F3-TEL-FGFR3 cell proliferation assay. The settings on record: 72 hours, Alamar Blue; read-out: IC50 against Ba/F3-TEL-FGFR3 cell line. It is filed as cell-based. Here is the method:
Ba/F3-TEL-FGFR3 & Ba/F3 (WT) Cell Proliferation Assays
Stably transfected Ba/F3-TEL-FGFR3 cells were plated out into black 96-well tissue culture plates with clear bottoms in RPMI medium containing 10% FBS and 0.25 mg/ml G418 at a density of 5×10^3 cells/well (200 μl per well). The parental wild-type Ba/F3 cells (DSMZ no.: ACC 300) were plated out into black 96-well tissue culture plates with clear bottoms in RPMI medium containing 10% FBS and 2 ng/ml mouse IL-3 (R&D Systems) at a density of 2.5×10^3 cells/well (200 μl per well). Plates were placed in an incubator overnight before adding the compounds the following day. Dilutions of compounds were made in DMSO starting at 10 mM and were diluted into the wells to give a final DMSO concentration of 0.1% in assay. Compounds were left on the cells for 72 hours before the plates were removed from the incubator and 20 μl of Alamar Blue™ (Biosource) was added to each well. Plates were placed in the incubator for 4-6 hours before reading plates at 535 nm (excitation)/590 nm (emission) on a Fusion plate reader (Packard).
In particular, compounds of the invention were tested against the Ba/F3-TEL-FGFR3 cell line.

In data set [2] the test system is LP-1 cell line (DSMZ no.: ACC 41) derived from human multiple myeloma. The experiment in a line: Cell-based pERK ELISA in LP-1 cells. The settings on record: LP-1, FGF-1/Heparin stimulated, for the 1 μM bound: or at least 50% inhibition at a concentration of 1 μM. How it is done:
Enzyme buffer A: 8 mM MOPS, pH 7.0, 0.2 mM EDTA, 10 mM MgAcetate Enzyme buffer B: 8 mM MOPS, pH 7.0, 0.2 mM EDTA, 2.5 mM MnCl2, 10 mM MgAcetate Enzyme buffer C: 8 mM Mops, pH 7.0, 0.2 mM EDTA, 10 mM MnCl2, 10 mM MgAcetate. Cell-Based pERK ELISA Method
LP-1 or JIM-1 multiple myeloma cells were seeded in 96 well plates at 1×10^6 cells/ml in 200 ul per well in serum free media. HUVEC cells were seeded at 2.5×10^5 cells/ml and allowed to recover for 24 h prior to transfer to serum free media. Cells were incubated for 16 h at 37° C. prior to the addition of a test compound for 30 minutes. Test compounds were administered at a 0.1% final DMSO concentration. Following this 30 minute incubation a FGF-1/Heparin (FGF-1 at 100 ng/ml final and Heparin at 100 ug/ml) mixture or VEGF^165 (100 ug/ml) was added to each of the wells for a further 5 minutes. The media was removed and 50 ul ERK ELISA lysis buffer (R and D Systems DuoSet ELISA for pERK and Total ERK #DYC-1940E, DYC-1018E) added. ELISA plates and standards were prepared according to the standard DuoSet protocols and the relative amounts of pERK to total ERK in each sample calculated according to the standard curve.
In particular, compounds of the invention were tested against the LP-1 cell line (DSMZ no.: ACC 41) derived from human multiple myeloma.

In the case of `CN(C)C(=O)c1ccn2c(-c3cccc(NC(=O)NCC(F)(F)F)c3)cnc2c1` [Example 1, 3-[3-[3-(2,2,2-Trifluoroethyl)ureido]-phenyl}imidazo[1,2-a]pyridine-7-carboxylic acid dimethylamide Hydrochloride], the IC50 in data set [1] is less than 20 µM.

Consider `CNC(=O)c1ccn2c(-c3cccc(NC(=O)NCC(F)(F)F)c3)cnc2c1` [Example 2, 3-[3-[3-(2,2,2-Trifluoroethyl)ureido]-phenyl}imidazo[1,2-a]pyridine-7-carboxylic acid methylamide], for which, in data set [2], the IC50 was less than 20 µM.

`O=C(NCC(F)(F)F)Nc1cccc(-c2cnc3cc(C(=O)N4CCC(O)C4)ccn23)c1` (stereo not shown) [Example 7, 1-{3-[7-(3-Hydroxy-pyrrolidine-1-carbonyl)-imidazo[1,2-a]pyridin-3-yl]-phenyl}-3-(2,2,2-trifluoro-ethyl)-urea]: in data set [2], the IC50 was less than 20 µM. Molecule `CC(CO)NC(=O)c1ccn2c(-c3cccc(NC(=O)NCC(F)(F)F)c3)cnc2c1` (stereo not shown) [Example 17, 3-{3-[3-(2,2,2-Trifluoro-ethyl)-ureido]-phenyl}-imidazo[1,2-a]pyridine-7-carboxylic acid (2-hydroxy-1-methyl-ethyl)-amide] had an IC50 in data set [2] of less than 20 µM. `Cn1cncc1NC(=O)c1ccn2c(-c3cccc(NC(=O)NCC(F)(F)F)c3)cnc2c1` [Example 18, 3-{3-[2,2,2-Trifluoro-ethyl)-ureido]-imidazo[1,2-a]pyridine-7-[5-(1-N-methyl-imidazole)]-amide] yielded a melting point of 260 °C.

Regarding `O=C(NCC(F)(F)F)Nc1cccc(-c2cnc3cc(C(=O)NCCCc4cnc[nH]4)ccn23)c1` [Example 19, 3-{3-[2,2,2-Trifluoro-ethyl)-ureido]-imidazo[1,2-a]pyridine-7-[3-(1H-imidazol-4-yl)]-propanamide], the melting point was 170 °C. Molecule `Cn1cncc1CNC(=O)c1ccn2c(-c3cccc(NC(=O)NCC(F)(F)F)c3)cnc2c1` [Example 20, 3-{3-[2,2,2-Trifluoro-ethyl)-ureido]-imidazo[1,2-a]pyridine-7-[5-(1-N-methyl-imidazole)]-methylamide] yielded a melting point of more than 260 °C.

As a reminder, the melting point is the temperature of the solid-liquid transition.
